This is an account of results in patent US20100069308A1, “Surfaces containing antibacterial polymers” (priority 2008, published 2010).

For one experiment, the system named is E. coli. The settings on record: cited from earlier work.
The test system of the next experiment is B. subtilis. The settings on record: cited from earlier work.
Another experiment relates to bacterial colonies. Put plainly: Antibacterial activity in the presence of biological serum (FIG. 1, number of bacterial colonies vs concentration). The class given is cell-based. The conditions noted are these: after 24 hours in biological serum. The method, then: Due to their mechanism of action, such antibacterial peptides should not be susceptible to resistance. […] In FIG. 1, panels 100A and 100B show the number of bacterial colonies as a function of the concentration of pexiganan 101A/B and ID 1 103 A/B, after 2 and 24 hours respectively, in biological serum. […] Accordingly, a peptide alternative that kills bacteria by a mechanism similar to that of antibacterial peptides but without the biological susceptibility would provide greater protection against bacterial colonization.
FIG. 1 depicts the activity of ID 1 and an antibacterial peptide (pexiganan) in the presence of biological serum.

Another experiment deals with Streptococcus pneumoniae. The conditions noted are these: cited from earlier work.
The test system of another experiment is Haemophilus influenzae. The settings on record: cited from earlier work.
A further experiment concerns Staphylococcus aureus. The settings on record: cited from earlier work.
For another experiment, the system named is Escherichia coli. The conditions noted are these: cited from earlier work.
Another experiment has as its system Enterococcus faecalis. The conditions noted are these: cited from earlier work.
For another experiment, the system named is Psuedomonas aeruginosa. The settings on record: cited from earlier work.

“H-NLys-Nssb-Nspe-Nssb-Nspe-NLys-Nspe-NLys-Nssb-Nssb-Nspe-NLys-NH2 [ID 15]”: the “E. coli MIC” value with E. coli was 3.1 µM. For the same substance, the “B. subtilis MIC” value in the experiment with B. subtilis was 15 µM.

As for H—(NGlu-Nspe-Nspe)4-NH2 [ID 13], in the experiment with E. coli, the “E. coli MIC” value was over 219 µM. The “B. subtilis MIC” value in the experiment on B. subtilis was over 219 µM.

As to H—(NLys)4-(Nspe)8-NH2 [ID 14], in the experiment on E. coli, the “E. coli MIC” value was 6.9 µM. Also, the “B. subtilis MIC” value in the experiment on B. subtilis was 1.7 µM.

Take H—(NLys-Nrpe-Nrpe)4-NH2 [ID 3]: the “E. coli MIC” value with E. coli was 3.5 µM. Also, in the experiment with B. subtilis, the “B. subtilis MIC” value was “.88 µM”.

H—(NLys-Nsmb-Nspe)4-NH2 [ID 7]: the “E. coli MIC” value with E. coli is 7.4 µM. In addition, the “B. subtilis MIC” value in the experiment on B. subtilis was “.95 µM”.

H—(NLys-Nspe-Nspe)2-NH2 [ID 4]: the “E. coli MIC” value in the experiment on E. coli is 27 µM. In addition, the “B. subtilis MIC” value in the experiment with B. subtilis was 27 µM.

For H—(NLys-Nspe-Nspe)3-NH2 [ID 5], the “E. coli MIC” value with E. coli is 9.1 µM. Moreover, the “B. subtilis MIC” value in the experiment with B. subtilis was 1.2 µM.

On to H—(NLys-Nspe-Nspe)4-NH2 [ID 1], for which the “Activity (number of bacterial colonies) in biological serum” value in the experiment on bacterial colonies was “retains activity”. Also, the “E. coli MIC” value in the experiment with E. coli is 3.5 µM. For the same substance, the “B. subtilis MIC” value in the experiment on B. subtilis is “.88 µM”. For the same substance, the MIC in the experiment on Streptococcus pneumoniae was 1.7 to 3.4 µM; in the experiment with Haemophilus influenzae, 6.9 µM; in the experiment with Staphylococcus aureus, 3.4 µM; with Escherichia coli, 14 to 28 µM; with Enterococcus faecalis, 3.4 to 6.9 µM; with Psuedomonas aeruginosa, 28 µM.

In the case of H—(NLys-Nspe-Nspe)5-NH2 [ID 6], the “E. coli MIC” value with E. coli is 5.5 µM. Moreover, in the experiment with B. subtilis, the “B. subtilis MIC” value was 1.4 µM.

In the case of “H—(NLys-Nspe-Nspe-NGlu-Nspe-Nspe)2-NH2 [ID 12]”, the “E. coli MIC” value with E. coli is over 110 µM. Also, the “B. subtilis MIC” value with B. subtilis was 6.9 µM.

Turning to “H—(NLys-Nspe-Nspe-NLys-Nspe-L-Pro-(NLys-Nspe-Nspe)2-NH2 [ID 11]”, the “E. coli MIC” value in the experiment on E. coli is 3.1 µM. The “B. subtilis MIC” value in the experiment with B. subtilis was 1.6 µM.

In the case of “H—(NLys-Nspe-Nspe-NLys-Nspe-NHis)2-NH2 [ID 10]”, in the experiment on E. coli, the “E. coli MIC” value is 3.5 µM. Also, the “B. subtilis MIC” value in the experiment with B. subtilis was 6.9 µM.

Consider “H—(NLys-Nspe-Nspe-NLys-Nspe-Nsna)2-NH2 [ID 9]”, for which the “E. coli MIC” value in the experiment on E. coli is 3.3 µM. Besides, the “B. subtilis MIC” value in the experiment with B. subtilis was 1.6 µM.

Turning to H—(NLys-Nssb-Nspe)4-NH2 [ID 2], in the experiment with E. coli, the “E. coli MIC” value was 31 µM. The “B. subtilis MIC” value with B. subtilis was 3.9 µM.

Take “H—(NLys-Nssb-Nspe-NLys-Nssb-Nsna)2-NH2 [ID 8]”: the “E. coli MIC” value in the experiment with E. coli is 7.2 µM. Also, the “B. subtilis MIC” value in the experiment with B. subtilis was “.93 µM”.
